In patent US10526316B2, “Quinoxaline and pyridopyrazine derivatives as PI3Kβ inhibitors” (Janssen Pharmaceutica NV, priority 2015, dated 2020):
Where two headings read alike, the source gives them in different places.

Key:
PI3Kδ = biological target: T1, PI3Kδ (Homo sapiens, UniProt O00329); test: Enzyme binding assay (KINOMEscan, DiscoveRx); conditions: PIK3Cδ_h
T1 construct: purchased DiscoveRx Corporation, San Diego (contract service, KINOMEscan)
T1 sequence (O00329 1-1044): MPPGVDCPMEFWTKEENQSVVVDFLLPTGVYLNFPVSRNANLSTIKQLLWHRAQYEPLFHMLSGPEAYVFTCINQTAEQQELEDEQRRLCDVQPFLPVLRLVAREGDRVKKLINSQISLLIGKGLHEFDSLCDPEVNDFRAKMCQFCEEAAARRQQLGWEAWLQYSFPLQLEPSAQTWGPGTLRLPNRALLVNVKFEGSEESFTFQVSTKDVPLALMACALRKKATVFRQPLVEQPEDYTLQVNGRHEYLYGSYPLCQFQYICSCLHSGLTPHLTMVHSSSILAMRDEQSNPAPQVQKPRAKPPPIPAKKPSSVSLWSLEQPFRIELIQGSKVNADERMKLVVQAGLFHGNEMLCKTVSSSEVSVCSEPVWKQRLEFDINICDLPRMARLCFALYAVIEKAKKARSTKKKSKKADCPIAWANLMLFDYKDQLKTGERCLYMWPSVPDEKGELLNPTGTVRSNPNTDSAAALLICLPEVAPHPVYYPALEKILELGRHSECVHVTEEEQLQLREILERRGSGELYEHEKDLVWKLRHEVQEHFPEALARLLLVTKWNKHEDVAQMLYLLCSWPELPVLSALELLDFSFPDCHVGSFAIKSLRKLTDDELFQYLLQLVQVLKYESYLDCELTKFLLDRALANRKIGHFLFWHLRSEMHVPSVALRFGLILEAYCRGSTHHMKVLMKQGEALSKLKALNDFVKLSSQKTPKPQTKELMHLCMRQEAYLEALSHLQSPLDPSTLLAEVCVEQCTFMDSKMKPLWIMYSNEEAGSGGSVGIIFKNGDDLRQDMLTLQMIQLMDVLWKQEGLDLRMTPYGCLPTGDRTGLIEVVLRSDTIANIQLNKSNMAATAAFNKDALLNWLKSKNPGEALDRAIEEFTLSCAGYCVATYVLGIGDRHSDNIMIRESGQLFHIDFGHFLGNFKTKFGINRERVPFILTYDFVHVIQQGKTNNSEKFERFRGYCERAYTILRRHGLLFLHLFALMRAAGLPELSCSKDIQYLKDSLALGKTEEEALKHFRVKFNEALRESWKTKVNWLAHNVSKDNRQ
Outline: (§1)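 KINOMEscan readout; values are kinase binding affinities.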

[1] = system: Akt phosphorylated at Ser473 in PC-3 cells; test: Cellular assay: phosphorylation of Akt at Ser473 in PC-3 cells (MSD ELISA); format: cell-based; conditions: PC-3 cells, 60 min compound incubation, MSD ELISA, read-out: IC50 pAkt_S473
Outline: (§2)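 Compound treatment of PC-3 cells lasted 60 min at 37° C (0.3% DMSO). Lysates were then applied to plates carrying capture antibodies for the relevant phospho-site, and bound Akt was detected with an electrochemiluminescent anti-total Akt antibody; IC50s derive from five-point curves.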

PI3Kβ = biological target: T2, PI3Kβ (Homo sapiens, UniProt P42338); test: Enzyme binding assay (KINOMEscan, DiscoveRx); conditions: PIK3Cβ_h, read-out: Kd PIK3Cβ_h
T2 construct: purchased DiscoveRx Corporation, San Diego (contract service, KINOMEscan)
Outline: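 KINOMEscan binding platform; read-out is the inhibitor binding constant Kd (nM).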

kinase enzymes [2] = biological target: T3, kinase enzymes (Homo sapiens, UniProt P42345); test: Enzyme binding assay (KINOMEscan, DiscoveRx), further kinases of Table A; conditions: MTOR_h
T3 construct: purchased DiscoveRx Corporation, San Diego (contract service, KINOMEscan)
Outline: as §1

kinase enzymes [3] = biological target: T4, kinase enzymes (Homo sapiens, UniProt P42336); test: as above; conditions: PIK3Cα_h
T4 construct: purchased DiscoveRx Corporation, San Diego (contract service, KINOMEscan)
Outline: as §1

kinase enzymes [4] = biological target: T5, kinase enzymes (Homo sapiens, UniProt P48736); test: as above; conditions: PIK3Cγ_h
T5 construct: purchased DiscoveRx Corporation, San Diego (contract service, KINOMEscan)
Outline: as §1

[5] = system: Akt phosphorylated at Thr308 in PC-3 cells; test: Cellular assay: phosphorylation of Akt at Thr308 in PC-3 cells (MSD ELISA); format: cell-based; conditions: PC-3 cells, 60 min compound incubation, MSD ELISA, read-out: IC50 pAkt_Thr308
Outline: as §2

T5 sequence (P48736 whole entry): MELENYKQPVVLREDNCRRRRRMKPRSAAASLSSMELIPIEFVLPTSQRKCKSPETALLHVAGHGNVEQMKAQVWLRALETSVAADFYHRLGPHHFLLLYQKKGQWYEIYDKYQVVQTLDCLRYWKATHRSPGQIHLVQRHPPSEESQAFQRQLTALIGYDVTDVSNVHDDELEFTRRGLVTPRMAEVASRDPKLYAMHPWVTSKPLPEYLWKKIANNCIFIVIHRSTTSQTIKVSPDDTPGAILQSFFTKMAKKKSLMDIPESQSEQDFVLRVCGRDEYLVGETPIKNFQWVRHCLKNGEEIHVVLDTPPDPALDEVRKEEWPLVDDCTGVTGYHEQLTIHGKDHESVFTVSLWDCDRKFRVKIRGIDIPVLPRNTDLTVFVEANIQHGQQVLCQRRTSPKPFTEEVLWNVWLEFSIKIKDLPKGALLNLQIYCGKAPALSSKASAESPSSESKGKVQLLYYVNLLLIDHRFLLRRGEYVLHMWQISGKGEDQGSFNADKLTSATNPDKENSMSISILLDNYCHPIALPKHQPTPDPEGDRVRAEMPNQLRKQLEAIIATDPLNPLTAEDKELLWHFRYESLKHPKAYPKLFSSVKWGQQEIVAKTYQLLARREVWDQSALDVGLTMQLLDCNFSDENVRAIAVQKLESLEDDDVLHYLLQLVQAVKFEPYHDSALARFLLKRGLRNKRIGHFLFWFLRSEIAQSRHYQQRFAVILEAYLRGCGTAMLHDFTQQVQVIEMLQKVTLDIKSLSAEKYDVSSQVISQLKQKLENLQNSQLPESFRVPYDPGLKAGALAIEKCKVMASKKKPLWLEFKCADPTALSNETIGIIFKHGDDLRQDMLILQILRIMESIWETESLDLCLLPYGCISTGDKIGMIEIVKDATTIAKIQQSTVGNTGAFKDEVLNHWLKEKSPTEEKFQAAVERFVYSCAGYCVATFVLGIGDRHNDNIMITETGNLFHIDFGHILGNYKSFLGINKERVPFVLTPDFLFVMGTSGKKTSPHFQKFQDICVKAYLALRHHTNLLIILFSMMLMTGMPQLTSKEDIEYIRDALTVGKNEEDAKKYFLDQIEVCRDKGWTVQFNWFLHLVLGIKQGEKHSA
T4 sequence (P42336 whole entry): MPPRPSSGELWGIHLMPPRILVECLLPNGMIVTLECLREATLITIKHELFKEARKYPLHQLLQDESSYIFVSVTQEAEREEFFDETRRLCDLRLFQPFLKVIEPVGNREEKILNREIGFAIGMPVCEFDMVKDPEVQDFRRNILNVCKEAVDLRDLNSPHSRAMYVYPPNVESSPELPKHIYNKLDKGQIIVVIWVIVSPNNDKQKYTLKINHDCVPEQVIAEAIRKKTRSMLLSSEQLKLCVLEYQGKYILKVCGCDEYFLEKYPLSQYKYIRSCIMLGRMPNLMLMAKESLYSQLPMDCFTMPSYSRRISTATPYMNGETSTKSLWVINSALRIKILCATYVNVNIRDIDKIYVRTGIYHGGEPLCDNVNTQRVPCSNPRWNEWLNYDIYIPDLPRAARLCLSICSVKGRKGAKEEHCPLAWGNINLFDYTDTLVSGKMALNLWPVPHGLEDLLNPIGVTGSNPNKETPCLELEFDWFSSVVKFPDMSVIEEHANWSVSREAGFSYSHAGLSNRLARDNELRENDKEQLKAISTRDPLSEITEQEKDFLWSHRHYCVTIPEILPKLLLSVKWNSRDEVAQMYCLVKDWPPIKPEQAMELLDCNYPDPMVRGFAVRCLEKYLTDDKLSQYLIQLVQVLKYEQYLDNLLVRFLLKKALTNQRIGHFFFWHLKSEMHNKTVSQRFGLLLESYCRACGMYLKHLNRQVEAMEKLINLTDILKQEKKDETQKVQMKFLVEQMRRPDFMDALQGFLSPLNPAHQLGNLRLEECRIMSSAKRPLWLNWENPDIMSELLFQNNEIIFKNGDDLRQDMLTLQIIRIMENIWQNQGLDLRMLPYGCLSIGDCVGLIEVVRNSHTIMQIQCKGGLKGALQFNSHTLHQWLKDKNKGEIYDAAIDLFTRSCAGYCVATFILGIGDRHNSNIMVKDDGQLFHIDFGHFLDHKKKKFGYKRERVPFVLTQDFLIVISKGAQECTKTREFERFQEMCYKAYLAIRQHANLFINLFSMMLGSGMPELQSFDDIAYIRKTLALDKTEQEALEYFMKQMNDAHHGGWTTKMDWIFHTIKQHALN
T2 sequence (P42338 whole entry): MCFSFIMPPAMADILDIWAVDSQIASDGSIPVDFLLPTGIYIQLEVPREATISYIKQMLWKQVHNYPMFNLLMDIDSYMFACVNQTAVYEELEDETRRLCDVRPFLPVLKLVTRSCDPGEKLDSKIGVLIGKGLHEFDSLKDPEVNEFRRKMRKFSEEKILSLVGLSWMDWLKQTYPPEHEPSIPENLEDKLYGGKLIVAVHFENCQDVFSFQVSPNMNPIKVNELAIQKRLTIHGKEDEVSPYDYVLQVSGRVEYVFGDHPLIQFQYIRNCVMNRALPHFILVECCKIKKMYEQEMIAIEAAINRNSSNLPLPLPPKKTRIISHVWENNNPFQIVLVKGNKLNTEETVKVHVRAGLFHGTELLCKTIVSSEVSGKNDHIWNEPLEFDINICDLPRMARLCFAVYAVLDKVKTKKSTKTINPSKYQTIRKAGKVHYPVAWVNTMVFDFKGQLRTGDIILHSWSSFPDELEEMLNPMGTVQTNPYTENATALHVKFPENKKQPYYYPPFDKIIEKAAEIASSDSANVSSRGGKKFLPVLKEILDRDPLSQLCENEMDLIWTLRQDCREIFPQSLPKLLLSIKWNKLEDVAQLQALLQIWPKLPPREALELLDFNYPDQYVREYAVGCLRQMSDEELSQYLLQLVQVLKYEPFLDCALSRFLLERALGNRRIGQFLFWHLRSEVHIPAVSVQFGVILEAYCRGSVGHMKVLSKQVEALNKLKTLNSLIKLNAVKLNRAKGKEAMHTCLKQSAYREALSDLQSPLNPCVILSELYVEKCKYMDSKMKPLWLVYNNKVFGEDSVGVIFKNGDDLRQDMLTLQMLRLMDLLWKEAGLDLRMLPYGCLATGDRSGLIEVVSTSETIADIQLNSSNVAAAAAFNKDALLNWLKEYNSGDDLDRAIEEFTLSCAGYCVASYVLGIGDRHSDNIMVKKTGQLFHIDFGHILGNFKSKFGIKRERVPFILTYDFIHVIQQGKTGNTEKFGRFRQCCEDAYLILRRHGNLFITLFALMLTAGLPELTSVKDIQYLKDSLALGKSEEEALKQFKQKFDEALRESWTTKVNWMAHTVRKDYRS

Row | Compound | Kd (PI3Kδ) [nM] | IC50 ([1]; Homo sapiens, PC-3, 1 h) [nM] | melting point [°C] | Kd (PI3Kβ) [nM] | Kd (kinase enzymes [2]) [nM] | Kd (kinase enzymes [3]) [nM] | Kd (kinase enzymes [4]) [nM] | IC50 ([5]; Homo sapiens, PC-3, 1 h) [nM] | IC50 [1] [nM] | IC50 [5] [nM]
1 | Cc1cc(F)cc(N2CCCC2c2cc(C(=O)N(C)C)cc3ncc(N4CCOCC4)nc23)c1 (stereo not shown) [Compound 35] | 151 | ~39 | 80 | 2 | > 30200 | 162 | 1910 | ~26.9 | – | –
2 | COc1cccc(N2CCCC2c2cc(C(=O)N(C)C)cc3ncc(N4CCOCC4)nc23)c1 (stereo not shown) [Compound 41] | 141 | 31 | 80 | 1 | > 30200 | 389 | 1380 | 22 | – | –
3 | CN(C)C(=O)c1cc(C2CCCN2c2ccc(F)cc2)c2nc(N3CCOCC3)cnc2c1 (stereo not shown) [Compound 42] | 56 | 16 | 80 | 1 | > 30200 | 331 | 1480 | 11 | – | –
4 | CN(C)C(=O)c1cc(C2CCCN2c2cc(F)cc(C=O)c2)c2nc(N3CCOCC3)cnc2c1 (stereo not shown) [Compound 44] | 174 | 74 | 80 | 1 | 23400 | 234 | 631 | 66 | – | –
5 | CN(C)C(=O)c1cc(C2CCCN2c2cc(F)cc(CO)c2)c2nc(N3CCOCC3)cnc2c1 (stereo not shown) [Compound 45] | 126 | 166 | 80 | 3 | 31600 | 170 | 2090 | 72 | – | –
6 | CC(C)NCc1cc(F)cc(N2CCCC2c2cc(C(=O)N(C)C)cc3ncc(N4CCOCC4)nc23)c1 (stereo not shown) [Compound 49] | 933 | > 513 | 80 | 16 | > 30200 | 2190 | 7590 | 468 | – | –
7 | CN(CCO)C(=O)c1cc(C2CCCN2c2cc(F)cc(F)c2)c2nc(N3CCOCC3)cnc2c1 (stereo not shown) [Compound 50] | 8 | 1 | 80 | 0.2 | 8910 | 11 | 87 | 1 | – | –
8 | CON(C)C(=O)c1cc(C2CCCN2c2cc(F)cc(F)c2)c2nc(N3CCOCC3)cnc2c1 (stereo not shown) [Compound 51] | 39 | 3 | 80 | 1 | > 30200 | 55 | 339 | 3 | – | –
9 | CN(C)C(=O)c1cc(C2CCCN2c2cccc(C(F)(F)F)c2)c2nc(N3CCOCC3)cnc2c1 (stereo not shown) [Compound 52] | 4900 | > 513 | 80 | 38 | > 30200 | 6170 | 13800 | 240 | – | –
10 | CN(C)C(=O)c1cc(C2CCCN2c2ccc(C#N)c(F)c2)c2nc(N3CCOCC3)cnc2c1 (stereo not shown) [Compound 54] | 7080 | > 513 | 80 | 115 | 26900 | 16200 | > 30200 | > 513 | – | –
11 | Cc1c(N2CCCC2c2cc(C(=O)N(C)C)cc3ncc(N4CCOCC4)nc23)cccc1C(F)(F)F (stereo not shown) [Compound 55] | > 30200 | > 513 | 80 | 3980 | > 30200 | > 30200 | > 30200 | > 513 | – | –
12 | O=C(O)c1cc(C2CCCN2c2cc(F)cc(F)c2)c2nc(N3CCOCC3)cnc2c1 (stereo not shown) [Compound 62] | 51 | 52 | > 260 | 1 | 2040 | 25 | 234 | 32 | – | –
13 | O=C(c1cc(C2CCCN2c2cc(F)cc(F)c2)c2nc(N3CCOCC3)cnc2c1)N1CC(CO)C1 (stereo not shown) [Compound 63] | 27 | 9 | 100 | 0.5 | 8130 | 79 | 891 | 4 | – | –
14 | O=C(c1cc(C2CCCN2c2cc(F)cc(F)c2)c2nc(N3CCOCC3)cnc2c1)N1CC(O)C1 (stereo not shown) [Compound 65] | 17 | 6 | 80 | 1 | 10700 | 38 | 200 | 2 | – | –
15 | O=C(NCCCO)c1cc(C2CCCN2c2cc(F)cc(F)c2)c2nc(N3CCOCC3)cnc2c1 (stereo not shown) [Compound 66] | 79 | 13 | 80 | 2 | 17000 | 65 | 676 | 6 | – | –
16 | CC(Oc1cccc(F)c1)c1cc(C(=O)N(C)C)cc2ncc(N3CCOCC3)nc12 (stereo not shown) [Compound 68] | 589 | 257 | 49 | 3 | 22400 | 3160 | 15100 | 148 | – | –
17 | CC(C)N1CCN(C(=O)c2cc(C3CCCN3c3cc(F)cc(F)c3)c3nc(N4CCOCC4)cnc3c2)CC1 (stereo not shown) [Compound 69] | 195 | 117 | 80 | 3 | > 30200 | 891 | 3090 | ~32 | – | –
18 | O=C(NCCO)c1cc(C2CCCN2c2cc(F)cc(F)c2)c2nc(N3CCOCC3)cnc2c1 (stereo not shown) [Compound 71] | 138 | ~15 | 80 | 1 | 22400 | 251 | 794 | 13 | – | –
19 | CNCCNC(=O)c1cc(C2CCCN2c2cc(F)cc(F)c2)c2nc(N3CCOCC3)cnc2c1 (stereo not shown) [Compound 72] | 17 | 2 | 80 | 0.2 | 20400 | 56 | 204 | 1 | – | –
20 | NC1CCN(C(=O)c2cc(C3CCCN3c3cc(F)cc(F)c3)c3nc(N4CCOCC4)cnc3c2)CC1 (stereo not shown) [Compound 75] | 2 | 2 | 80 | 0.1 | > 30200 | 30 | 4 | 1 | – | –
21 | OC1CN(Cc2cc(C3CCCN3c3cc(F)cc(F)c3)c3nc(N4CCOCC4)cnc3c2)C1 (stereo not shown) [Compound 76] | 19 | 7 | 90 | 0.1 | > 30200 | 50 | 251 | 7 | – | –
22 | CC(Oc1cc(F)ccc1Br)c1cc(C(=O)N(C)C)cc2ncc(N3CCOCC3)nc12 (stereo not shown) [Compound 78] | 1170 | ~219 | 235 | 15 | > 30200 | 3720 | 13500 | ~295 | – | –
23 | COC(=O)c1cc(C(C)Nc2cc(F)cc(F)c2)c2nc(N3CCOCC3)cnc2c1 (stereo not shown) [Compound 80] | 7590 | – | 244 | 50 | > 30200 | > 30200 | 24500 | – | ~214 | ~79
